Source: patent publication US20240382629A1, “HETEROBIVALENT AND HOMOBIVALENT AGENTS TARGETING FIBROBLAST ACTIVATION PROTEIN ALPHA AND/OR PROSTATE-SPECIFIC MEMBRANE ANTIGEN” (The Johns Hopkins University, priority 2021, published 2024)
Like-named read-outs stand apart in the source and are kept apart here.

Legend:
PREP = PREP (Homo sapiens (Human), UniProt P48147); test: PREP inhibition assay (recombinant enzyme, Z-Gly-Pro-AMC substrate); assay type: biochemical
Description: (§1) PSMA binding affinities of the compounds were determined using a competitive inhibition assay as previously reported. […] FAP, prolyl endopeptidase (PREP), and […] (DPPIV) inhibition assays: Recombinant enzymes (FAP, PREP, DPPIV) were purchased from R&D Systems (Minneapolis, MN). […] Z-Gly-Pro-AMC was used as a substrate for FAP and PREP. H-Gly-Pro-AMC was used as a substrate for DPPIV. The recombinant enzyme (0.4 μg/mL) was incubated with varying amounts of the test articles in the presence of the designated substrate (80 μM) for 10 min at room temperature. Fluorescence intensity was measured with 380 nm excitation and 460 nm emission using the Cytation 5 Cell Imaging Multi-Mode Reader (BioTek, Winooski, VT). IC50 and Ki values were obtained using a sigmoidal dose-response function.

DPPIV = DPPIV (Homo sapiens (Human), UniProt P27487); test: DPPIV inhibition assay (recombinant enzyme, H-Gly-Pro-AMC substrate); assay type: biochemical; conditions: for IC50: read-out: DPPIV IC50
Sequence of DPPIV (P27487 whole entry): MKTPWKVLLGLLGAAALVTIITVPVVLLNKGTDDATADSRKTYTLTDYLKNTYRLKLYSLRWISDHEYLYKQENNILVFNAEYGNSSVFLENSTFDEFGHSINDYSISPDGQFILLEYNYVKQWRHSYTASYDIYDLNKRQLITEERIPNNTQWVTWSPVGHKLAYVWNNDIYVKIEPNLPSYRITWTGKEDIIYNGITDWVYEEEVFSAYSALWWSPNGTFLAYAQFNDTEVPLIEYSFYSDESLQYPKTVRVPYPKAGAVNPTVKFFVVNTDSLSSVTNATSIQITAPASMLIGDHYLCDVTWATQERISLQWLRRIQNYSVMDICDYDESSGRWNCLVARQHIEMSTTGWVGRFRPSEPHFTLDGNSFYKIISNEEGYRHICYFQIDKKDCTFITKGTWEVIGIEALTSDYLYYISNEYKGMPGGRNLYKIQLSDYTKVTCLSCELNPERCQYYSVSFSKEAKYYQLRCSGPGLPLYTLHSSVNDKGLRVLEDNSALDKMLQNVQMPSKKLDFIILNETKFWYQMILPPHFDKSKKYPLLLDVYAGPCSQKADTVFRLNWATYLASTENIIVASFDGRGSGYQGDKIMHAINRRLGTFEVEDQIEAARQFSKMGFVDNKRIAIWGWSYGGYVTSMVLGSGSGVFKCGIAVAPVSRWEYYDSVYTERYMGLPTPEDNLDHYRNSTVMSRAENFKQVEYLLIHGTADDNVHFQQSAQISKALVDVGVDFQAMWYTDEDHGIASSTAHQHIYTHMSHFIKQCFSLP
Description: as §1

FAP = FAP (Homo sapiens (Human), UniProt Q12884); test: FAP inhibition assay (recombinant enzyme, Z-Gly-Pro-AMC substrate); assay type: biochemical; conditions: for Ki: read-out: FAP Ki
Sequence of FAP (Q12884 whole entry): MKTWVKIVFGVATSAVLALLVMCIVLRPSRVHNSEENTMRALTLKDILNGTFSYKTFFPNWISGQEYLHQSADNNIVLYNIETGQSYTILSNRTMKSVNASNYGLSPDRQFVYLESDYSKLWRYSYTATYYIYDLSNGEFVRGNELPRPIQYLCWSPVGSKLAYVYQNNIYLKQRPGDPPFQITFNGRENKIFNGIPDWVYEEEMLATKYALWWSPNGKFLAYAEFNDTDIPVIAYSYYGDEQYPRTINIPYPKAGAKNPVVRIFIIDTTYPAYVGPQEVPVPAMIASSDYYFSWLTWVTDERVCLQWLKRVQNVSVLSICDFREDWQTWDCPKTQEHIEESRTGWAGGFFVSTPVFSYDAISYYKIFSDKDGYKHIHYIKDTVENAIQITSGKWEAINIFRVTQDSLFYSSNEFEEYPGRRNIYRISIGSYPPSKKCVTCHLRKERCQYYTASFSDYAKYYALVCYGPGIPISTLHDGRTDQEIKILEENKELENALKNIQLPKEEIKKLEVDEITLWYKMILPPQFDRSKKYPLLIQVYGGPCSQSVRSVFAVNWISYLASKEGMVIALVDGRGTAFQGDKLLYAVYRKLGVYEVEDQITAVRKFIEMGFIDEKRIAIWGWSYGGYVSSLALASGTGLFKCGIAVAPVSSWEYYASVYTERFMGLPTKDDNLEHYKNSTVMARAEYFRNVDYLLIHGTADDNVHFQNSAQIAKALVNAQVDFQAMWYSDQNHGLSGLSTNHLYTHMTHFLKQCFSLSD
Description: as §1

MDA-MB-231 = test: Biodistribution in MB-MDA-231 NSG mice; assay type: in vivo, mouse; set-up: Biodistribution: Spleen / Biodistribution: Fat / Biodistribution: Kidney / Biodistribution: Muscle / Biodistribution: Small Intestine / Biodistribution: Salivary Gland / Biodistribution: Lacrimal gland / Biodistribution: Bladder / Biodistribution: Bone / Biodistribution: MDA-MB-231 / Biodistribution: Blood / Biodistribution: Heart / Biodistribution: Lung / Biodistribution: Liver / Biodistribution: Stomach: unit not given here
PSMA = PSMA (Homo sapiens (Human), UniProt Q04609); test: PSMA competitive inhibition assay (NAAG substrate, LNCaP cell lysate); assay type: biochemical; conditions: for Ki: read-out: PSMA Ki
Sequence of PSMA (Q04609 whole entry): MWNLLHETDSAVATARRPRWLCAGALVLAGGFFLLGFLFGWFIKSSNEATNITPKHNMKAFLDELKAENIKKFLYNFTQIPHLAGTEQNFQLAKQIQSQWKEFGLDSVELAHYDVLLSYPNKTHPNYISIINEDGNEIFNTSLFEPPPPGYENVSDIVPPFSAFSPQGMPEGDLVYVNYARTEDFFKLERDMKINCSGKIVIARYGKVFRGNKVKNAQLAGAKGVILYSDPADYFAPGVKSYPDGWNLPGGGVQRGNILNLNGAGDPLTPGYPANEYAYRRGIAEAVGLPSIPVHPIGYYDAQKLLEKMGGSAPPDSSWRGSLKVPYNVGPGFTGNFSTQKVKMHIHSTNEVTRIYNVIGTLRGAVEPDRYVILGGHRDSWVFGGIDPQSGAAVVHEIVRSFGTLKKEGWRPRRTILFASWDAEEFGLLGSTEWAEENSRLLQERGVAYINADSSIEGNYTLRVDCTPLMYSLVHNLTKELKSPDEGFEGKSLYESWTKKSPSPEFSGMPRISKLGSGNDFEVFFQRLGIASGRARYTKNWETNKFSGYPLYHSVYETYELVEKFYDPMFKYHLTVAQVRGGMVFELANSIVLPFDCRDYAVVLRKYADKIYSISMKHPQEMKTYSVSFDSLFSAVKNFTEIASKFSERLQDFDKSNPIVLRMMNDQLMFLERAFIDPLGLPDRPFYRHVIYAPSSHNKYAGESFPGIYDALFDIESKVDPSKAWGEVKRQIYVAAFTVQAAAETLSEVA
Description: as §1

Sequence of PREP (P48147 whole entry): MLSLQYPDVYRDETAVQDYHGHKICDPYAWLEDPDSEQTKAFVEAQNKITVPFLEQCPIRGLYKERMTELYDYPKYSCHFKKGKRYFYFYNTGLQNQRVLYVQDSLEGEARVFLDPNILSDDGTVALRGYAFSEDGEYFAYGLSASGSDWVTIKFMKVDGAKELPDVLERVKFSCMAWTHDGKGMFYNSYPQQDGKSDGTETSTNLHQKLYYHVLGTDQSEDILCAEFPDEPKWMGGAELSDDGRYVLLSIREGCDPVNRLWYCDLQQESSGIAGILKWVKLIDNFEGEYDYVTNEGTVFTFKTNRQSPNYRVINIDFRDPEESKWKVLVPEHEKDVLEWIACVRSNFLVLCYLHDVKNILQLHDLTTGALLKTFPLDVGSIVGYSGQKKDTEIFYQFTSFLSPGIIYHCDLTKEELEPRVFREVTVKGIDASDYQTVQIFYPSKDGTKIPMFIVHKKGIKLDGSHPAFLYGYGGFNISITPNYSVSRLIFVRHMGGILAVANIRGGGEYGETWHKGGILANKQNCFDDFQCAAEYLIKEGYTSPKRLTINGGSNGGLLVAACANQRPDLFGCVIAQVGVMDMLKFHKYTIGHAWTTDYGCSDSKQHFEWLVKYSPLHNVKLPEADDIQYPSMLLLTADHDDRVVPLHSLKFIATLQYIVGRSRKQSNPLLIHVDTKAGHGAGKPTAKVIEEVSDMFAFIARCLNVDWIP

N#C[C@@H]1CCCN1C(=O)CNC(=O)c1ccnc2ccc(OCCOCCNC(=O)[C@H](CCCCNC(=O)c3ccc(F)nc3)NC(=O)CN3CCN(CC(=O)O)CCN(CC(=O)O)CCN(CC(=O)O)CC3)cc12 [JHU1221803]
IC50 (PREP; Table 3): 1090 nM
IC50 (DPPIV; Table 3): 6220 nM
IC50 (FAP; Table 3): 1.4 nM
Ki (FAP; Table 3): 0.28 nM

N#C[C@@H]1CCCN1C(=O)CNC(=O)c1ccnc2ccc(OCCCNC(=O)CNC(=O)[C@H](CCCCNC(=O)c3ccc(F)nc3)NC(=O)CN3CCN(CC(=O)O)CCN(CC(=O)O)CCN(CC(=O)O)CC3)cc12 [JHU1221804]
IC50 (PREP; Table 3): 1710 nM
IC50 (DPPIV; Table 3): 8310 nM
IC50 (FAP; Table 3): 1.01 nM
Ki (FAP; Table 3): 0.2 nM

N#C[C@@H]1CCCN1C(=O)CNC(=O)c1ccnc2ccc(OCCCNC(=O)CCOCCOCCOCCOCCNC(=O)[C@H](CCCCNC(=O)c3ccc(F)nc3)NC(=O)CN3CCN(CC(=O)O)CCN(CC(=O)O)CCN(CC(=O)O)CC3)cc12 [JHU1221823]
IC50 (PREP; Table 3): 240 nM
IC50 (DPPIV; Table 3): 7470 nM
IC50 (FAP; Table 3): 0.59 nM
Ki (FAP; Table 3): 0.12 nM

N#C[C@@H]1CCCN1C(=O)CNC(=O)c1ccnc2ccc(OCCCNC(=O)CCc3cn(CCOCCOCCOCCC(=O)N[C@@H](CCCCNC(=O)CN4CCN(CC(=O)O)CCN(CC(=O)O)CC4)C(=O)NCCCCC(=O)N(CCCC[C@H](NC(=O)N[C@@H](CCC(=O)O)C(=O)O)C(=O)O)Cc4ccc(Br)cc4)nn3)cc12 [SB-FAP-02]
Ki (PREP): 116000 nM
IC50 (PREP; Table 4): 580 nM
Biodistribution: Blood (MDA-MB-231; At 1 h nude mice): 8.47 ± 0.16
Biodistribution: Bone (MDA-MB-231; At 1 h nude mice): 3.34 ± 0.32
Biodistribution: Fat (MDA-MB-231; At 1 h nude mice): 0.61 ± 0.31
Biodistribution: Heart (MDA-MB-231; At 1 h nude mice): 3.46 ± 0.07
Biodistribution: Kidney (MDA-MB-231; At 1 h nude mice): 12.14 ± 1.39
Biodistribution: Lacrimal gland (MDA-MB-231; At 1 h nude mice): 6.61 ± 1.23
Biodistribution: Liver (MDA-MB-231; At 1 h nude mice): 6.74 ± 0.16
Biodistribution: Lung (MDA-MB-231; At 1 h nude mice): 5.16 ± 0.04
Biodistribution: MDA-MB-231 (MDA-MB-231; At 1 h nude mice): 3.60 ± 0.32
Biodistribution: Muscle (MDA-MB-231; At 1 h nude mice): 1.59 ± 0.07
Biodistribution: Pancreas (MDA-MB-231; At 1 h nude mice): 4.95 ± 0.24
Biodistribution: Salivary Gland (MDA-MB-231; At 1 h nude mice): 7.75 ± 0.99
Biodistribution: Small Intestine (MDA-MB-231; At 1 h nude mice): 6.69 ± 0.82
Biodistribution: Spleen (MDA-MB-231; At 1 h nude mice): 2.38 ± 0.04
Biodistribution: Stomach (MDA-MB-231; At 1 h nude mice): 2.72 ± 0.30
Biodistribution: Bladder (MDA-MB-231; At 2 h NSG mice): 1.82 ± 0.26
Ki (DPPIV): 1760 nM
IC50 (DPPIV; Table 4): 8810 nM
IC50 (FAP; Table 4): 1.53 nM
Ki (FAP; Table 4): 0.31 nM
Ki (FAP): 0.31 nM
IC50 (PSMA; Table 4): 90 nM
Ki (PSMA; Table 4): 18.1 nM
Ki (PSMA): 18.1 nM
PSMA binding affinity, fold lower than FP-L2 (PSMA; relative to FP-L2): 2 fold

N#C[C@@H]1CCCN1C(=O)CNC(=O)c1ccnc2ccc(OCCCNC(=O)CCc3cn(CCOCCOCCOCCC(=O)N[C@@H](CCCCNC(=O)CCC(C(=O)O)N4CCN(CC(=O)O)CCN(CC(=O)O)CCN(CC(=O)O)CC4)C(=O)NCCCCC(=O)N(CCCC[C@H](NC(=O)N[C@@H](CCC(=O)O)C(=O)O)C(=O)O)Cc4ccc(Br)cc4)nn3)cc12 (some centres unmarked) [SB-FAP-03]
IC50 (PREP; Table 4): 1370 nM
IC50 (DPPIV; Table 4): 18400 nM
IC50 (FAP; Table 4): 3.42 nM
Ki (FAP; Table 4): 0.68 nM
IC50 (PSMA; Table 4): 14.5 nM
Ki (PSMA; Table 4): 2.89 nM

N#C[C@@H]1CCCN1C(=O)CNC(=O)c1ccnc2ccc(OCCCNC(=O)CCc3cn(CCCC[C@H](NC(=O)CN4CCN(CC(=O)O)CCN(CC(=O)O)CCN(CC(=O)O)CC4)C(=O)NCCCCCC(=O)N(CCCC[C@H](NC(=O)N[C@@H](CCC(=O)O)C(=O)O)C(=O)O)Cc4ccc(Br)cc4)nn3)cc12 [SB-FAP-06]
IC50 (PREP; Table 4): 370 nM
IC50 (DPPIV; Table 4): 14100 nM
IC50 (FAP; Table 4): 1.84 nM
Ki (FAP; Table 4): 0.37 nM
IC50 (PSMA; Table 4): 4.71 nM
Ki (PSMA; Table 4): 0.94 nM

N#C[C@@H]1CCCN1C(=O)CNC(=O)c1ccnc2ccc(OCCCNC(=O)CCc3cn(CCCC[C@H](NC(=O)CN4CCN(CC(=O)O)CCN(CC(=O)O)CC4)C(=O)NCCCCCC(=O)N(CCCC[C@H](NC(=O)N[C@@H](CCC(=O)O)C(=O)O)C(=O)O)Cc4ccc(Br)cc4)nn3)cc12 [SB-FAP-07]
Ki (PREP): 210 nM
IC50 (PREP; Table 4): 1070 nM
Ki (DPPIV): 3040 nM
IC50 (DPPIV; Table 4): 11700 nM
IC50 (FAP; Table 4): 0.65 nM
Ki (FAP): 0.13 nM
IC50 (PSMA; Table 4): 39.6 nM
Ki (PSMA): 7.92 nM

N#CC1CCCN1C(=O)CNC(=O)c1ccnc2ccc(OCCCNC(=O)CCc3cn(CCCC[C@H](NC(=O)CN4CCN(CC(=O)O)CCN(CC(=O)O)CC4)C(=O)NCCCOc4ccc5nccc(C(=O)NCC(=O)N6CCC[C@H]6C#N)c5c4)nn3)cc12 (some centres unmarked) [SB-FAP-09]
IC50 (PREP; Table 3): 630 nM
IC50 (DPPIV; Table 3): 2050 nM
IC50 (FAP; Table 3): 0.48 nM
Ki (FAP; Table 3): 0.1 nM

CC1(C)C(/C=C/C2=C(Oc3ccc(S(=O)(=O)O)cc3)C(=C/C=C3/N(CCCCS(=O)(=O)O)c4ccc(S(=O)(=O)O)cc4C3(C)C)/CCC2)=[N+](CCCCCC(=O)N[C@@H](CCCCn2cc(CCC(=O)NCCCOc3ccc4nccc(C(=O)NCC(=O)N5CCC[C@H]5C#N)c4c3)nn2)C(=O)NCCNC(=O)CCC(C(=O)O)N2CCN(CC(=O)O)CCN(CC(=O)O)CCN(CC(=O)O)CC2)c2ccc(S(=O)(=O)[O-])cc21 (some centres unmarked) [SB-FAP-10]
IC50 (PREP; Table 4): 2530 nM
IC50 (DPPIV; Table 4): 11900 nM
IC50 (FAP; Table 4): 3.43 nM
Ki (FAP; Table 4): 0.69 nM

N#C[C@@H]1CCCN1C(=O)CNC(=O)c1ccnc2ccc(OCCCNC(=O)CCc3cn(CCCC[C@H](NC(=O)c4ccc(F)nc4)C(=O)NCCNC(=O)CCC(C(=O)O)N4CCN(CC(=O)O)CCN(CC(=O)O)CCN(CC(=O)O)CC4)nn3)cc12 (stereo partly drawn) [SB-FAP-11, 2,2′,2″-(10-(1-Carboxy-4-((2-((S)-6-(4-(3-((3-((4-((2-((S)-2-cyanopyrrolidin-1-yl)-2-oxoethyl)carbamoyl)quinolin-6-yl)oxy)propyl)amino)-3-oxopropyl)-1H-1,2,3-triazol-1-yl)-2-(6-fluoronicotinamido)hexanamido)ethyl)amino)-4-oxobutyl)-1,4,7,10-tetraazacyclododecane-1,4,7-triyl)triacetic acid]
IC50 (PREP; Table 3): 510 nM
IC50 (DPPIV; Table 3): 9480 nM
IC50 (FAP; Table 3): 0.35 nM
Ki (FAP; Table 3): 0.07 nM

N#CC1CCCN1C(=O)CNC(=O)c1ccnc2ccc(OCCCNC(=O)CCc3cn(CC[C@H](NC(=O)CN4CCN(CC(=O)O)CCN(CC(=O)O)CC4)C(=O)NCCCCCC(=O)NCCCC[C@H](NC(=O)N[C@@H](CC(=O)O)C(=O)O)C(=O)O)nn3)cc12 (some centres unmarked) [SRI-07-42]
IC50 (PREP; Table 4): 11200 nM
IC50 (DPPIV; Table 4): 9910 nM
IC50 (FAP; Table 4): 2.23 nM
Ki (FAP; Table 4): 0.45 nM
IC50 (PSMA; Table 4): 4710 nM
Ki (PSMA; Table 4): 940 nM
